Experiments:
Assay type in all cases: biochemical
[1] = molecular target: T1, thrombin (IIa) (Homo sapiens, UniProt P00734); assay: Fluorogenic enzyme assay (Example 5); parameters: key to Kinetic constants, IIa (symbol b): slow substrate hydrolysis, no kinetic constants calculated; conditions: for TIME TO 10% HYDROLYSIS (HOURS), IIa: substrate 1 μM
T1 construct: 0.5 nM human thrombin (IIa)
Experimental: (§1) Enzyme assays (except factor VIIa assays, see below) were conducted in 20 mM Tris, 150 mM NaCl, pH 7.4 (TBS) at room temperature (22° C.). The final volume for all reaction mixtures was 2.0 ml. Fluorogenic substrates were dissolved in DMSO to a stock concentration of 10 mM. The 10 mM stock solution was diluted in TBS to the final working concentration prior to all assays. Enzyme was added to mixtures containing buffer components and substrate and the initial rate of substrate hydrolysis was measured as the change in fluorescent intensity over time, corresponding to the generation of the particular 6-amino-1-naphthalenesulfonamide fluorophore from the provided substrate. Quantitation of substrate hydrolysis was accomplished by establishing a standard curve from the appropriate fluorescent moiety. Fluorescence was monitored (continuously or discontinuously) using a Perkin Elmer fluorescence spectrophotometer, model MPF-44A, equipped with a standard chart recorder. The fluorophore was detected using monochrometers set at an excitation wavelength of 352 nm and an emission wavelength of 470 nm. Light scattering artifacts were minimized using a 399 nm cut off filter in the emission light beam.
(§2) The kinetic constants of substrate hydrolysis were determined using the non-linear least squares regression analysis program ENZFITTER (Cambridge, UK). This program was used to iteratively fit initial rates of substrate hydrolysis to the Michaelis-Menten equation and the kinetic constants of substrate hydrolysis (Km) and (kcat) were calculated.

[2] = molecular target: factor Xa (Homo sapiens, UniProt P00742); assay: Fluorogenic enzyme assay (Example 5); parameters: key to Kinetic constants, Xa (symbol b): slow substrate hydrolysis, no kinetic constants calculated
Experimental: as §1, §2

[3] = molecular target: activated protein C (APC) (Homo sapiens, UniProt P04070); assay: Fluorogenic enzyme assay (Example 5); parameters: key to Kinetic constants, APC (symbol b): slow substrate hydrolysis, no kinetic constants calculated; conditions: for TIME TO 10% HYDROLYSIS (HOURS), APC: substrate 1 μM
Experimental: as §1, §2

[4] = molecular target: plasmin (Plm) (Homo sapiens, UniProt P00747); assay: Fluorogenic enzyme assay (Example 5); conditions: substrate 1 μM
Experimental: as §1, §2

[5] = molecular target: tissue plasminogen activator (t-PA) (Homo sapiens, UniProt P00750); assay: Fluorogenic enzyme assay (Example 5); conditions: 100 nM enzyme, substrate 1 μM; for hydrolysis, t-PA (symbol d): at 100 hours
Experimental: as §1, §2

[6] = molecular target: urokinase (u-PA) (Homo sapiens, UniProt P00749); assay: Fluorogenic enzyme assay (Example 5); conditions: 100 nM enzyme, substrate 1 μM; for hydrolysis, u-PA (symbol d): at 100 hours
Experimental: as §1, §2

[7] = molecular target: T2, factor VIIa (Homo sapiens, UniProt P08709); assay: Fluorogenic enzyme assay, relative hydrolysis rates (Table 8); conditions: at 100 hours; 10 nM enzyme, substrate 1 μM
T2 construct: directly measure the enzymatic activity of factor VIIa in the presence and absence of tissue factor and phospholipid
T2 sequence (P08709 213-466 limits assumed): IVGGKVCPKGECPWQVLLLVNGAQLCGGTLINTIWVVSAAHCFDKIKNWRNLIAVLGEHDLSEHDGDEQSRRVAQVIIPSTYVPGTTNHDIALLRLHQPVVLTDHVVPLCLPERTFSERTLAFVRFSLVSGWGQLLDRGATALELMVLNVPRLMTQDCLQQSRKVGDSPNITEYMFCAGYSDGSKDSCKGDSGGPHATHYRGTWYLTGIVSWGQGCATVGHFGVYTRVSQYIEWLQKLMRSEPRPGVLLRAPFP
T2 sequence (P08709 61-212 limits assumed): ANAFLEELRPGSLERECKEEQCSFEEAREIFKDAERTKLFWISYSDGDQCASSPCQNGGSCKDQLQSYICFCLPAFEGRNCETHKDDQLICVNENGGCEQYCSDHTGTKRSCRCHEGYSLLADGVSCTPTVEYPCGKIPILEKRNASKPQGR
Experimental: as §1
Factor VII assays were conducted in 20 mM HEPES, 150 mM NaCl, 5 mM CaCl2, pH 7.4 (HBS) at 37° C. The final volume for all reactions was 1.6 ml. 6-(Mes-D-Leu-Gly-Arg)amino-1-(N,N-diethyl)naphthalenesulfonamide was dissolved in DMSO to a stock concentration of 10 mM. This 10 mM stock solution of was diluted in HBS to final working concentration prior to all assays. For reactions involving tissue factor (TF) and phospholipid vesicles, recombinant human tissue factor was solubilized in either 0.04% n-dodecyl octaethylene glycol (C12 E8) or 0.8% octyl glucoside. The TF/n-dodecyl octaethylene glycol was then relipidated into PCPS or PC vesicles by a 30 minute incubation step as described by Lawson & Mann, J. Biol. Chem. 266: 11317-11327 (1991). TF/octyl glucoside was relipidated into PC or PCPS vesicles by a thirty minute incubation step followed by exhaustive dialysis. The final concentration of tissue factor used in the studies described here ranged from 2 to 50 nM depending on the nature of the experiment.
Fifteen minutes prior to the start of all reactions factor VIIa was added to the reaction system. This incubation period was followed by the addition of substrate (1 μM to 400 μM) to the mixture to start the reaction. In experiments designed to determine kinetic constants of substrate hydrolysis, 50 nM rVIIa was used when no tissue factor was present in the reaction system, while 0.5 nM rVIIa was used when tissue factor was present in the reaction system. The rate of substrate hydrolysis was measured by change in fluorescence over time, which corresponded with the generation of the 6-amino-1-(N,N-diethyl)naphthalenesulfonamide from the provided substrate. The kinetic constants of 6-(Mes-D-Leu-Gly-Arg)amino-1-(N,N-diethyl)naphthalenesulfonamide hydrolysis as a function of factor VIIa/tissue factor complex assembly are shown in Table 10.

[8] = molecular target: factor IXa (Homo sapiens, UniProt P00740); assay: Fluorogenic enzyme assay (Example 5); parameters: key to Kinetic constants, IXa (symbol b): slow substrate hydrolysis, no kinetic constants calculated; conditions: for hydrolysis, IXa (symbol d): at 100 hours
Experimental: as §1, §2

[9] = 100 nM enzyme (footnote b), substrate 1 μM

Sequence of factor IXa (P00740 227-461 limits assumed): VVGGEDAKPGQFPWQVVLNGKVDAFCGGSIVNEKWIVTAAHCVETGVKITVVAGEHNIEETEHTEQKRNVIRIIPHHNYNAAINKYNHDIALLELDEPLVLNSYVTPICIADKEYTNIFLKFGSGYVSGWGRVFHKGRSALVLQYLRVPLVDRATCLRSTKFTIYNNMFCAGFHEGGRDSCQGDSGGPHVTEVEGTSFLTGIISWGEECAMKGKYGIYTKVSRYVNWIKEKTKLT
Sequence of factor IXa (P00740 47-191 limits assumed): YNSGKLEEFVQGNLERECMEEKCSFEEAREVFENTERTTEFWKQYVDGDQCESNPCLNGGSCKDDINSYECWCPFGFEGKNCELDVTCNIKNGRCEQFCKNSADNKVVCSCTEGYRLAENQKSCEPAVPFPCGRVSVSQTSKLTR
Sequence of activated protein C (APC) (P04070 212-461 limits assumed): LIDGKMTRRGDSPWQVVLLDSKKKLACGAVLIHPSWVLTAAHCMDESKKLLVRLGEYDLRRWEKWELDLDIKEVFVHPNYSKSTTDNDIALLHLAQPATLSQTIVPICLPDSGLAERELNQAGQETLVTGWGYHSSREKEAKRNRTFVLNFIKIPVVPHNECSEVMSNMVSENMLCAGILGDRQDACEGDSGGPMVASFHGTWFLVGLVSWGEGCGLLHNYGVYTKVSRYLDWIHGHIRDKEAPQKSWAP
Sequence of activated protein C (APC) (P04070 43-197 limits assumed): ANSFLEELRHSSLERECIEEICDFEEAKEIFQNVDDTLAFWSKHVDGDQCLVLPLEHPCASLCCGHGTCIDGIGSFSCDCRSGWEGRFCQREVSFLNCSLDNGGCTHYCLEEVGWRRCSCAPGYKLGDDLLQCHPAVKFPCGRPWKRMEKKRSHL
Sequence of factor Xa (P00742 235-488 limits assumed): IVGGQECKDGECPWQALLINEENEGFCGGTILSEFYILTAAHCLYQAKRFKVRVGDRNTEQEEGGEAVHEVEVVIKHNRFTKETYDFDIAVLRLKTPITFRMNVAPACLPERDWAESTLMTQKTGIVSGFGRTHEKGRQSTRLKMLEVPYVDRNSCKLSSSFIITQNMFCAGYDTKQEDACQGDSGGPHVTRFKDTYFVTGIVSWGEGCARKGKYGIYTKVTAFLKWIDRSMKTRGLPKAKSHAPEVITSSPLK
Sequence of factor Xa (P00742 41-179 limits assumed): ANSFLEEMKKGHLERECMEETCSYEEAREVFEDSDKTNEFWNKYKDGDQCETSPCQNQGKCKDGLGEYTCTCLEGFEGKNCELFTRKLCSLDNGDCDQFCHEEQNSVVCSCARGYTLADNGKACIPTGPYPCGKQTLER
Sequence of plasmin (Plm) (P00747 581-810 limits assumed, species assumed): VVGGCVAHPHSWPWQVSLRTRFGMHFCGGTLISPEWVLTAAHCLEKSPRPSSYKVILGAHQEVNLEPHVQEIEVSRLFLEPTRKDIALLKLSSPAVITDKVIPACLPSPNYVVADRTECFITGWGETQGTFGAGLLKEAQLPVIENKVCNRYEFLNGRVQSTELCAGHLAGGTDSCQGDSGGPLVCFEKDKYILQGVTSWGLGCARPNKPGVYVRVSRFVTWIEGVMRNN
Sequence of plasmin (Plm) (P00747 97-580 limits assumed, species assumed): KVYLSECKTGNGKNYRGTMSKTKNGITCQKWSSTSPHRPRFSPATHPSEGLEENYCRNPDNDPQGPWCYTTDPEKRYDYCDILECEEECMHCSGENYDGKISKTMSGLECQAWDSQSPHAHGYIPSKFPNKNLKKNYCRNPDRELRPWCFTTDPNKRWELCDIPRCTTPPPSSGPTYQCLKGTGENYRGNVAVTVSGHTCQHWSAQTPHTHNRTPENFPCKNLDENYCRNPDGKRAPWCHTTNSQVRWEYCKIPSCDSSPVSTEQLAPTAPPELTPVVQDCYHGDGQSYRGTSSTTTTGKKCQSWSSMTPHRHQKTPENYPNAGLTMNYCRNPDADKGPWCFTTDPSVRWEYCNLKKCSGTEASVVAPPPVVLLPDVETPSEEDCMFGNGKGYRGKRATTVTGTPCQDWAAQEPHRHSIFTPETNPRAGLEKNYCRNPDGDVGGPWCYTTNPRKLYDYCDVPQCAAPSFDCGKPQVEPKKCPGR
Sequence of tissue plasminogen activator (t-PA) (P00750 36-562, species assumed): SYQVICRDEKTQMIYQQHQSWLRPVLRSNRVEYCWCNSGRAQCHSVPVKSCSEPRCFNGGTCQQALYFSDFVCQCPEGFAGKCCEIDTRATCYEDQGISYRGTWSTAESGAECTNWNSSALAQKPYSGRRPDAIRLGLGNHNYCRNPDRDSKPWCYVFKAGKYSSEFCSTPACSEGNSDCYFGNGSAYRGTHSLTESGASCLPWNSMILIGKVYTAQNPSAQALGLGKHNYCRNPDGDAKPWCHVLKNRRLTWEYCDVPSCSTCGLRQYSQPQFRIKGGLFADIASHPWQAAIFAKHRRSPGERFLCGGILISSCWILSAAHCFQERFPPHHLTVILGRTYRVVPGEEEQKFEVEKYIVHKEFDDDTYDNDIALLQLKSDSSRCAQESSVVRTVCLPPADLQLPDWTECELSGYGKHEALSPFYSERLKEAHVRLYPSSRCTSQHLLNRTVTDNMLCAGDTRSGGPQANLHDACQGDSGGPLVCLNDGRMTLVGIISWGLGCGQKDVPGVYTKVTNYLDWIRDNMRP

Row | Structure (SMILES) | TIME TO 10% HYDROLYSIS (HOURS), IIa ([1]; 10 nM enzyme) [h] | TIME TO 10% HYDROLYSIS (HOURS), APC ([3]; 100 nM enzyme (footnote b)) [h] | TIME TO 10% HYDROLYSIS (HOURS), Plm ([4]; 100 nM enzyme (footnote b)) [h] | hydrolysis, t-PA (symbol d) [5] | hydrolysis, u-PA (symbol d) [6] | hydrolysis, VIIa (symbol d) [7] | hydrolysis, IXa (symbol d) ([8]; 100 nM enzyme, substrate 1 μM) | TIME TO 10% HYDROLYSIS (HOURS), APC ([3]; 10 nM enzyme) [h] | Km ([3]; Table 9) [µM] | kcat /Km, APC ([3]; Table 9) [M⁻¹ s⁻¹] | kcat, APC ([3]; Table 9) [s⁻¹] | TIME TO 10% HYDROLYSIS (HOURS), u-PA [6] [h] | Kinetic constants, IXa (symbol b) ([8]; Table 9) | Km ([1]; Table 9) [µM] | kcat, IIa ([1]; Table 9) [s⁻¹] | TIME TO 10% HYDROLYSIS (HOURS), Xa ([2]; 10 nM enzyme, substrate 1 μM) [h] | Km ([2]; Table 9) [µM] | kcat /Km, Xa ([2]; Table 9) [M⁻¹ s⁻¹] | kcat, Xa ([2]; Table 9) [s⁻¹] | TIME TO 10% HYDROLYSIS (HOURS), Plm ([4]; 10 nM enzyme) [h] | also measured
1 | CN(C)S(=O)(=O)c1cccc2cc(NC(=O)[C@H](CCCNC(=N)N)NC(=O)[C@@H](N)CCCCNC(=O)OCc3ccccc3)ccc12.Cl.Cl [N^ω -AZ)KJR-ANSN(CH3)2] | 26 | 5.5 | 1.5 | d (hydrolysis at 100 hours was less than 10%.) | d (hydrolysis at 100 hours was less than 10%.) | d (hydrolysis at 100 hours was less than 10%.) | d (hydrolysis at 100 hours was less than 10%.) | – | – | – | – | – | – | – | – | – | – | – | – | – | hydrolysis, Xa (symbol d) ([2]; at 100 hours, 10 nM enzyme, substrate 1 μM): d (hydrolysis at 100 hours was less than 10%.)
2 | Br.Br.Br.N=C(N)NCCC[C@H](NC(=O)CNC(=O)CN)C(=O)N[C@@H](CCCNC(=N)N)C(=O)Nc1ccc2c(S(=O)(=O)NC3CCCCC3)cccc2c1 [GGRR-ANSNH(cyclo-C6 H11)] | 93 | – | 2.5 | d (hydrolysis at 100 hours was less than 10%.) | – | d (hydrolysis at 100 hours was less than 10%.) | d (hydrolysis at 100 hours was less than 10%.) | 0.5 | 267 | 11600 | 3.1 | 24 | b | – | – | – | – | – | – | – | Kinetic constants, IIa (symbol b) ([1]; Table 9): b; TIME TO 10% HYDROLYSIS (HOURS), Xa [2, 9]: 46 h; Kinetic constants, Xa (symbol b) ([2]; Table 9): b
3 | CCCNS(=O)(=O)c1cccc2cc(NC(=O)[C@H](CCCNC(=N)N)NC(=O)[C@H](Cc3ccccc3)NC(=O)[C@@H]3CCCN3)ccc12.Cl.Cl [PFR-ANSNHC3 H7] | 5 | – | – | d (hydrolysis at 100 hours was less than 10%.) | – | d (hydrolysis at 100 hours was less than 10%.) | d (hydrolysis at 100 hours was less than 10%.) | 0.25 | 240 | 19600 | 4.7 | 6 | b | 600 | 0.36 | 1.25 | 667 | 2000 | 1.33 | 13 | kcat /Km, IIa ([1]; Table 9): 600 M⁻¹ s⁻¹
4 | CCCNS(=O)(=O)c1cccc2cc(NC(=O)[C@H](CCCNC(=N)N)NC(=O)[C@H](Cc3ccccc3)NC(=O)[C@@H]3CCCN3C(=O)OC(C)(C)C)ccc12 [BocPFR-ANSNHC3 H7] | 4 | – | – | – | – | d (hydrolysis at 100 hours was less than 10%.) | d (hydrolysis at 100 hours was less than 10%.) | 3 | – | – | – | 5 | b | 44.4 | 0.04 | 9 | 230 | 260 | 0.06 | 22 | kcat /Km, IIa ([1]; Table 9): 900 M⁻¹ s⁻¹; Kinetic constants, APC (symbol b) ([3]; Table 9): b; TIME TO 10% HYDROLYSIS (HOURS), t-PA [5]: 4 h
5 | CC(C)C[C@@H](NC(=O)OCc1ccccc1)C(=O)N1CCC[C@H]1C(=O)N[C@@H](CCCNC(=N)N)C(=O)Nc1ccc2c(S(=O)(=O)N3CCCCC3)cccc2c1 [ZD-LPR-ANSN(CH2)5] | – | – | – | – | – | d (hydrolysis at 100 hours was less than 10%.) | – | 0.5 | 246 | 28900 | 7.1 | 1 | – | 4.2 | 16.1 | 0.02 | 26.3 | 133000 | 3.5 | 0.08 | TIME TO 10% HYDROLYSIS (HOURS), IIa ([1]; 1 nM enzyme (footnote c)): 0.01 h; TIME TO 10% HYDROLYSIS (HOURS), t-PA [5]: 1 h; TIME TO 10% HYDROLYSIS (HOURS), IXa ([8]; 100 nM enzyme, substrate 1 μM): 7 h; Km ([8]; Table 9): 141 µM; kcat, IXa ([8]; Table 9): 0.39 s⁻¹; kcat/Km, IXa ([8]; Table 9): 2750 M⁻¹ s⁻¹
6 | CN(C)S(=O)(=O)c1cccc2cc(NC(=O)[C@H](CCCNC(=N)N)NC(=O)[C@H](CCCCNC(=O)OCc3ccccc3)NC(=O)OC(C)(C)C)ccc12 [(N^α -Boc,N^.cndot. -Z)KR-ANSN(CH23)2] | 18 | 11 | 1.5 | d (hydrolysis at 100 hours was less than 10%.) | d (hydrolysis at 100 hours was less than 10%.) | d (hydrolysis at 100 hours was less than 10%.) | d (hydrolysis at 100 hours was less than 10%.) | – | – | – | – | – | – | – | – | – | – | – | – | – | TIME TO 10% HYDROLYSIS (HOURS), Xa [2, 9]: 24 h
